The target of one assay is T1, Aspartyl aminopeptidase (Plasmodium falciparum 3D7, UniProt Q8I2J3).
T1 sequence (Q8I2J3 whole entry): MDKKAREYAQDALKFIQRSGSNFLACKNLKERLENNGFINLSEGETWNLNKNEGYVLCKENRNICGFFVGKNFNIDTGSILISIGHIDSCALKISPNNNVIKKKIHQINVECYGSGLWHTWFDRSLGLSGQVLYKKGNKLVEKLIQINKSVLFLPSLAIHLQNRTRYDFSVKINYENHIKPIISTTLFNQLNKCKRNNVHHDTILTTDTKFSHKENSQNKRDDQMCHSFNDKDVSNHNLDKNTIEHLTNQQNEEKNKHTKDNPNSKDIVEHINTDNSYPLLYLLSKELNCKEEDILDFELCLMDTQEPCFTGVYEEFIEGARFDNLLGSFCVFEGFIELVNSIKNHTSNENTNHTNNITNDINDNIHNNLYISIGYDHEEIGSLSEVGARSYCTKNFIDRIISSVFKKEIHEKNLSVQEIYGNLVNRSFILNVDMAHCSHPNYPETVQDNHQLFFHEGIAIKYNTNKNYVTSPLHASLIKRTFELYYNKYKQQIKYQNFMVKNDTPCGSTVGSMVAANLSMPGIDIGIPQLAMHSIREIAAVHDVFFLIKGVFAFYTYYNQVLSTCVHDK
The assay is described as follows: Counterscreen for inhibitors of M1 and M17 aminopeptidases: QFRET-based biochemical high throughput dose response assay for inhibitors of the Plasmodium falciparum M18 Aspartyl Aminopeptidase (PFM18AAP). [Related PubChem assays: 1619 (Screening assay (M17LAP inhibitors).), 1445 (Screening assay (M1AAP inhibitors).)].

The next assay addresses T2, Leucine aminopeptidase (Plasmodium falciparum 3D7, UniProt Q8IL11).
T2 sequence (Q8IL11 whole entry): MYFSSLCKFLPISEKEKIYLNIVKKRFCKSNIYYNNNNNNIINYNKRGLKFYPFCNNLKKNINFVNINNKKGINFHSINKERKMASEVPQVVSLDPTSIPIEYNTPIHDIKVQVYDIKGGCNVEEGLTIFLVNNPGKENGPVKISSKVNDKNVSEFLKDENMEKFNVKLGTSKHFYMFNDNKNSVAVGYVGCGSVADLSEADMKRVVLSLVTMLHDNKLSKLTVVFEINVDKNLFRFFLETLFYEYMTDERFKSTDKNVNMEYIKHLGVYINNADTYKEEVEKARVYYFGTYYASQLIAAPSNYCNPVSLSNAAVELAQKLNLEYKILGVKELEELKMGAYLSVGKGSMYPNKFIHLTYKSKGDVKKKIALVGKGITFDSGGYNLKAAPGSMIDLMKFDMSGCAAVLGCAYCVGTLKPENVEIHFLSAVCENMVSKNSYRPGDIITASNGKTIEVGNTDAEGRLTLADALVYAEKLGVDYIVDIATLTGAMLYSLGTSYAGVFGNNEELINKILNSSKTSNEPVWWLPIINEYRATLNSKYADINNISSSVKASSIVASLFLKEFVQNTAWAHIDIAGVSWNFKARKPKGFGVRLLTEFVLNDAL
Nature of the assay: P. falciparum M17LAP inhibitors, primary screen, biochemical, fluorogenic H-Leu-NHMec substrate, 1536-well (AID 1619). Format: functional.

A further assay addresses Procathepsin L (Homo sapiens, UniProt P07711). The assay is described as follows: cathepsin L inhibitors, dose response, counter-screen for M1/M17 aminopeptidase inhibitor project, biochemical, QFRET, 1536-well (AID 2214).
Assay [1] can be described thus: Late-stage results from the probe development effort to identify antagonists of arginine vasopressin receptor 1a (AVPR1a): fluorescence-based cell-based dose response OXTR inhibition counterscreen assay. Type of assay: functional. On the technique in general: The purpose of a counterscreen is to sort out artefacts and off-target activity.
Another assay has as its target Vasopressin V1b receptor (Homo sapiens, UniProt P47901). Nature of the assay: Late-stage results from the probe development effort to identify antagonists of arginine vasopressin receptor 1a (AVPR1a): fluorescence-based cell-based dose response AVPR1b inhibition counterscreen assay. Format: functional.
A short description of assay [2]: Late-stage results from the probe development effort to identify antagonists of arginine vasopressin receptor 1a (AVPR1a): fluorescence-based cell-based dose response AVPR1a inhibition assay. Type of assay: functional.
A further assay concerns the target Vasopressin V2 receptor (Homo sapiens, UniProt P30518). The assay is described as follows: Late-stage results from the probe development effort to identify antagonists of arginine vasopressin receptor 1a (AVPR1a): fluorescence-based cell-based dose response AVPR2 inhibition counterscreen assay. Format: functional.
Assay [3] in a line: cytotoxicity toward HT-29 cells – cell-based, CellTiter-Glo luminescence, IC50, dose response (AID 1117330). Type of assay: functional. Background: Cellular ATP, detected with luciferase, serves as a proxy for viable cell number.
The nature of assay [4]: CellTiter-Glo luminescent dose response of DLD-1 viability loss (AID 1117352). Type of assay: functional.
Assay [5] can be described thus: cytotoxicity toward HCT116 cells – cell-based, CellTiter-Glo luminescence, IC50, dose response (AID 1117332). Type of assay: functional. The note with it: HCT-116.
Assay [6] is described as follows: cytotoxicity toward Colo320 cells – cell-based, CellTiter-Glo luminescence, IC50, dose response (AID 1117334). Type of assay: functional. The note with it: COLO 320.
Assay [7] is described as follows: SNU-C1 cell viability reduction, dose response, CellTiter-Glo luminescence (AID 1117323). Type of assay: functional, cell-based.
Assay [8] in a line: HCT116 cell viability decrease, GSK3B pretreatment – CellTiter-Glo, IC50, dose response (AID 1117339). Type of assay: functional. The note with it: HCT-116.
The nature of assay [9]: RKO cell viability reduction, dose response, CellTiter-Glo luminescence (AID 1117322). Type of assay: functional.
Assay [10] is described as follows: Concentration-dependent survival of SW480 colon cancer line, luminescence detection with CellTiter-Glo, half-maximal inhibitory concentration (AID 1117338). Type of assay: functional.
Assay [11] in a line: inhibitors of Vif binding to APOBEC3G peptide, primary screen, biochemical, TR-FRET, GST-Vif 1-94, biotin-A3G peptide, dose response retest (AID 1117319).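 Also: inhibitors lower the FRET signal by blocking Vif and A3G binding.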 Format: functional. A general note: In TR-FRET formats the signal depends on donor and acceptor labels being close together.
Assay [12] is described as follows: A cytotoxicity screen of small molecule inhibitors of the PhoP region in Salmonella typhi identified in the primary screen. [Related pubchem assays: 1850, 1864, 1985 ]. Format: functional.
The nature of assay [13]: P. falciparum Dd2 growth inhibitors, dose response, SYBR Green, dry powder samples, set 9 (AID 1159568). Type of assay: functional, cell-based.
The next assay deals with T3, Cytochrome P450 1A2 (Homo sapiens, UniProt P05177).
T3 sequence (P05177 whole entry): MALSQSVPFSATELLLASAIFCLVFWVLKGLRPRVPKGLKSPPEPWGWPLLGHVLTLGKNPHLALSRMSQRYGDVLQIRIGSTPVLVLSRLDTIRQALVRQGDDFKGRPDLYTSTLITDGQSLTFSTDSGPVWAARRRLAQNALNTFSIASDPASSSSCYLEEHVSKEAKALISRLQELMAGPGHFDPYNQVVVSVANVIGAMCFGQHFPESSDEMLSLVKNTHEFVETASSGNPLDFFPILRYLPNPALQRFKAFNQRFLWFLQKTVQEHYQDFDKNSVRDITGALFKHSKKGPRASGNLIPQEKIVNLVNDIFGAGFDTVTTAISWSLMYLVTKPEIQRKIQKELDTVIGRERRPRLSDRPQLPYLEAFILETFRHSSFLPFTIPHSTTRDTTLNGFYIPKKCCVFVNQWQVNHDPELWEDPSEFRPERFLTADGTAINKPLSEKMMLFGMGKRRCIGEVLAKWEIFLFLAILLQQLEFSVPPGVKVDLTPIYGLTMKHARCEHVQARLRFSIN

Assay [14] can be described thus: Dose-response inhibition of insulin secretion in a rat insulinoma line at 5 mM glucose (AID 1117331). Format: functional, cell-based. The note with it: INS-1E.
In assay [15] the target is E3 ubiquitin-protein ligase Mdm2 (Homo sapiens, UniProt Q00987). Nature of the assay: enhancers of MDM2-luciferase reporter signal, concentration-effect titration, project on inhibitors of MDM2 ubiquitin ligase, cellular assay, luminescent readout, 384-well plate format (AID 1394).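 Also: MDM2 E3 inhibitors raise luminescence so EC50 is for signal enhancement.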 Format: functional.
E3 ubiquitin-protein ligase Mdm2, sequence (Q00987 whole entry): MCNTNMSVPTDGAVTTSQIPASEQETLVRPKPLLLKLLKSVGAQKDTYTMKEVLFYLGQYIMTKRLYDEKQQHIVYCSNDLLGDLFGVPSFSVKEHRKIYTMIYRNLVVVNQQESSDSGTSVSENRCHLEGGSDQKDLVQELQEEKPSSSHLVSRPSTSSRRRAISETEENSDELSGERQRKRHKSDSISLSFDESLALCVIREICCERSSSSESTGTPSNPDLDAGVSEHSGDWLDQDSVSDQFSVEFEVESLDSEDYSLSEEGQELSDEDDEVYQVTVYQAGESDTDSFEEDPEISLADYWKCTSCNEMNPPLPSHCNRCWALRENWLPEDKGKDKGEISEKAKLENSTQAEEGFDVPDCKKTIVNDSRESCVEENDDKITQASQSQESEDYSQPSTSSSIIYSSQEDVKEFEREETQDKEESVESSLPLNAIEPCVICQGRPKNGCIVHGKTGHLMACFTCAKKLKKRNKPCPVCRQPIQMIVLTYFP
A further assay addresses T4, Protein Tat (Human immunodeficiency virus type 1 group M subtype B (isolate HXB2)(HIV-1), UniProt P04608).
T4 sequence (P04608 whole entry): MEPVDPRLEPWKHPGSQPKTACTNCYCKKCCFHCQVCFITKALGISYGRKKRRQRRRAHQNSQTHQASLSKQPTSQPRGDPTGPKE
Format: functional.

Assay [16] in a line: cytotoxicity in OVCAR8 ovarian cancer cells, dose response, PAX8 project, cell-based, plate reader, dry powder samples (AID 743197). Format: functional. The note with it: OVCAR-8.
A short description of assay [17]: NIH:OVCAR-3 ovarian cancer cell cytotoxicity, dose response, PAX8 inhibitor project, plate reader, dry powder samples (AID 743044). Format: functional, cell-based.
Assay [18] is described as follows: IGROV1 ovarian cancer cell cytotoxicity, dose response, PAX8 inhibitor project, plate reader, dry powder samples (AID 743043). Format: functional, cell-based. The note with it: IGROV-1.
A further assay has as its target Paired box protein Pax-8 (Homo sapiens, UniProt Q06710). The assay is described as follows: inhibitors of PAX8-driven TPO luciferase reporter, dose response, RMG-I cells, cherry-pick (AID 687027).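 Also: luciferase reporter driven by Pax8 target thyroperoxidase promoter measured by SteadyGlo luminescence.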 Type of assay: functional, cell-based.

The source made the active and inactive calls.

Vasopressin V1b receptor, sequence (P47901 whole entry): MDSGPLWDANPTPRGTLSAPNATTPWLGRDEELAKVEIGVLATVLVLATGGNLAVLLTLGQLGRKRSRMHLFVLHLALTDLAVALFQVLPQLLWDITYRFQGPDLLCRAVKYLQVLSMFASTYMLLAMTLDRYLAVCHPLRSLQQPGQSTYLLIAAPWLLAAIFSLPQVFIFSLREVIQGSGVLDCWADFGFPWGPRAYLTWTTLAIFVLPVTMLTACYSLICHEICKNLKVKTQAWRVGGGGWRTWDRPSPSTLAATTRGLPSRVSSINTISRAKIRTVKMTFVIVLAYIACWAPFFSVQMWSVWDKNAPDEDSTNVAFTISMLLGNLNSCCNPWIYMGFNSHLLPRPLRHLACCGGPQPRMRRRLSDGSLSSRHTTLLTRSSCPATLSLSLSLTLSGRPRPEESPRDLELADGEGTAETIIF
Vasopressin V2 receptor, sequence (P30518 whole entry): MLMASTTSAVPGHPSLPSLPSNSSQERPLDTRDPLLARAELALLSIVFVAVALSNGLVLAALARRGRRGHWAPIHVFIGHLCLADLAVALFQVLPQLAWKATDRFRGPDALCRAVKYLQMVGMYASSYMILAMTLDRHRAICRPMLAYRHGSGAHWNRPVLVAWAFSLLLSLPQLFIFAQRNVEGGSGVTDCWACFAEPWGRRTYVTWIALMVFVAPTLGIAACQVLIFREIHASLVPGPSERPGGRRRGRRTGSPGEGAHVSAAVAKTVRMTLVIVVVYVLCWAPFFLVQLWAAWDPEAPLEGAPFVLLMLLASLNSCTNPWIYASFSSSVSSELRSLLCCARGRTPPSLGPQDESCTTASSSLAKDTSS
Paired box protein Pax-8, sequence (Q06710 whole entry): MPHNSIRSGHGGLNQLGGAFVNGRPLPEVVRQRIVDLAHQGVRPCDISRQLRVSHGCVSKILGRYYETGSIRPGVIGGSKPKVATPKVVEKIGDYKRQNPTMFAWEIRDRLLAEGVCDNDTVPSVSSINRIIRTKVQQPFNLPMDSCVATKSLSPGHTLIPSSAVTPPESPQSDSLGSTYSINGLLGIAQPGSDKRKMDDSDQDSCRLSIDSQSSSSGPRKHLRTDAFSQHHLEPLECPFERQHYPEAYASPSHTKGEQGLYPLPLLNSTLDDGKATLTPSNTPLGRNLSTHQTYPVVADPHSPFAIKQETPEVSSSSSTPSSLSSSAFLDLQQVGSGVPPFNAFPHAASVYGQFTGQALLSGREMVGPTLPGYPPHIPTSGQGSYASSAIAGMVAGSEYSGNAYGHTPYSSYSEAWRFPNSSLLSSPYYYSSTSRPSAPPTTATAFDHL
Procathepsin L, sequence (P07711 whole entry): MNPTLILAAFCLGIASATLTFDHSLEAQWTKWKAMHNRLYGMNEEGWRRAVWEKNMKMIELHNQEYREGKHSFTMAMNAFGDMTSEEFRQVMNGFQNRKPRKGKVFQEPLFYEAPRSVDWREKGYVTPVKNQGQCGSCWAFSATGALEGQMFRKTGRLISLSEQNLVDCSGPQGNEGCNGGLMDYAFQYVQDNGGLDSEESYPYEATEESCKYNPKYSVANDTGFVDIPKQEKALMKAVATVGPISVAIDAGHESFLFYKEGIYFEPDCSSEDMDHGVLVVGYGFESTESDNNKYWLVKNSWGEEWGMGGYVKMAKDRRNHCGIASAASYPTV

A word on the IC50: it is the midpoint of a concentration-inhibition curve. For the molecule `Cc1cccc(Nc2nnc(SC3CCOC3=O)s2)c1C` (centres undefined), the IC50 was > 73.5 µM (not active) against Aspartyl aminopeptidase, 2.23 µM (active) on Leucine aminopeptidase and > 59.6 µM (not active) at Procathepsin L.

For the molecule `O=C(C1CCN(c2ncccc2Cl)CC1)N(CC1CC1)c1ccc(Cl)cc1`, the half-inhibitory concentration (IC50) in assay [1] was 1.7 µM (active); on Vasopressin V1b receptor, 7.1 µM (active); in [2], 0.0232 µM (active); at Vasopressin V2 receptor it was 11.3 µM (inactive).

Take `N=C(NN=Cc1ccc(Cl)cc1)NN=Cc1ccc(Cl)cc1`: the IC50 in assay [3] was 0.681 µM (active); in assay [4], 0.654 µM (active); in assay [5], 0.394 µM (active); in assay [6], 0.458 µM (active); in [7], 0.28 µM (active); in assay [8] it was 0.344 µM (active). Moreover, the IC50 is 0.47 µM (active) in assay [9] and 0.225 µM (active) in [10].

As a reminder, the EC50 is the concentration needed to bring the measured effect to its halfway point. For `COC(=O)c1ccc(CSc2nc3ccccc3c(=O)n2-c2ccc(OC)c(OC)c2)o1`, in assay [11], the 50% inhibitory concentration (IC50) is > 100 µM (active). For the same molecule, the EC50 in assay [12] was > 50 µM (active).

In general, AC50 refers to the midpoint of the concentration-response curve, whichever way the signal moves. As to `CN1c2ccc(C#Cc3cccnc3)cc2[C@@H]2[C@@H](CCN2C(=O)c2cccc(F)c2)[C@@H]1CO`, in assay [13], the AC50 is 4.46 µM (active).

Take `O=C1NCN(c2ccccc2)C12CCN(CCCOc1ccc(F)cc1)CC2` [SPIRAMIDE]: the concentration at half-maximal activity (AC50) at Cytochrome P450 1A2 is 39.8 µM (inconclusive). In addition, the IC50 in assay [3] was 2.46 µM (active); in assay [14], > 33.3 µM (inactive); in assay [4] it was 0.882 µM (active); in assay [5], 8.82 µM (inactive); in assay [6], 11.8 µM (inactive); in assay [7], 0.242 µM (active). Further, the values for the IC50 in [8], in assay [9] and in assay [10] were 5.33 µM (inactive), 5.31 µM (inactive) and 4.61 µM (active), respectively.

On to `Cc1ccnc(N2CCC(C(=O)N(CC3CC3)c3ccc(Cl)cc3)CC2)c1`, for which the IC50 in assay [1] was 9.1 µM (active); at Vasopressin V1b receptor, 18.2 µM (inactive); in assay [2], 0.0052 µM (active); on Vasopressin V2 receptor, 13.6 µM (inactive).

As to `Cc1ccc(C)c(NC(=O)C(Sc2nnc(-c3cccs3)o2)c2ccccc2)c1` (centres undefined), the EC50 in [15] is 25 µM (not active).

Take `CCOc1ccc(Nc2nc3ccccc3n3nnnc23)cc1`: the IC50 (in [11]; on Protein Tat) was > 100 µM (active) in each case.

For the molecule `Cc1ccc(S(=O)(=O)N(C)C[C@H]2OCCCC[C@H](C)Oc3ccc(NS(=O)(=O)c4ccc(F)cc4)cc3C(=O)N([C@H](C)CO)C[C@@H]2C)cc1`, the AC50 in assay [16] was > 70 µM (inactive); in assay [17], 29.3 µM (active); in assay [18] it was 67.9 µM (active); on Paired box protein Pax-8 it was 3.32 µM (active).
